Measured values: US20140378406A1, “SILVER BASED GELS FOR ANTIMICROBIAL APPLICATIONS” (The University of Akron, priority 2012, published 2014)

What was measured:
Test in all cases: Minimal inhibitory concentration (MIC), CLSI procedures
Type in all cases: cell-based
Escherichia coli = system: Escherichia coli
Protocol: (§1) The combination of aqueous solutions of 50 mM glutathione and 50 mM silver carbene complex SCC22 at ambient conditions in a 1:1.25 ratio (final concentration 20 mM glutathione and 25 mM SCC22) results in a colorless hydrogel material. The gel was tested to determine its minimal inhibitory concentration (MIC) on three bacterial species including Pseudomonas aeruginosa, Staphylococcus aureus, and Escherichia coli using procedures published by the Clinical and Laboratory Standards Institute. The combination of aqueous solutions of 50 mM glutathione and 50 mM silver carbene complex SCC1 at ambient conditions in a 1:1.67 ratio (final concentration 15 mM glutathione and 25 mM SCC1) results in a colorless hydrogel material. The gel was tested to determine its minimal inhibitory concentration (MIC) on three bacterial species including Pseudomonas aeruginosa, Staphylococcus aureus, and Escherichia coli using procedures published by the Clinical and Laboratory Standards Institute. The combination of aqueous solutions of 50 mM glutathione and 50 mM silver carbene complex SCC8 at ambient conditions in a 1:1.25 ratio (final concentration 20 mM glutathione and 25 mM SCC8) results in a colorless hydrogel material (GSH8). The gel was tested to determine its minimal inhibitory concentration (MIC) on three bacterial species including Pseudomonas aeruginosa, Staphylococcus aureus, and Escherichia coli using procedures published by the Clinical and Laboratory Standards Institute.

Pseudomonas aeruginosa = system: Pseudomonas aeruginosa
Protocol: as §1

Staphylococcus aureus = system: Staphylococcus aureus
Protocol: as §1

- MIC E. coli (Escherichia coli): 4 µg/mL
- MIC P. aeruginosa (Pseudomonas aeruginosa): 4 µg/mL
- MIC S. aureus (Staphylococcus aureus): 4 µg/mL
Compound: NC[C@H]1O[C@H](O[C@H]2[C@H](O)[C@@H](O[C@H]3O[C@H](CO)[C@@H](O)[C@H](N)[C@H]3O)[C@H](N)C[C@@H]2N)[C@H](N)C[C@@H]1O [Tobramycin]
